{
  "source": "patent US20220218664A1",
  "about": "“DRUG AND METHOD FOR TREATING OR PREVENTING COMPLICATIONS FROM DIABETES, USING SAID DRUG” (TMS Co., Ltd., priority 2019, published 2022)",
  "assay_type_in_all_cases": "in vivo, C57BL/6J male mice",
  "key": {"[1]": {"assay": "Body weight (BW) in streptozotocin-induced diabetic mice", "settings": "30 mg/kg i.p. once a day", "protocol": "(§1) 9-week-old C57BL/6J male mice were purchased and familiarized with an animal facility for 1 week. 200 mg/kg of streptozotocin (streptozotocin; STZ) was administered […] into the peritoneal cavity of 10-week-old mice to prepare streptozotocin-induced diabetic mice (hereinafter also referred to as “STZ administration week 0”). One week after the administration of streptozotocin, blood was collected from the tail vein of the mice, and the blood glucose level (BS) was measured using an automatic blood glucose measuring device (product name: Medisafe (trademark) Mini GR-102, made by Terumo (Co)). Mice having a blood glucose level of 400 mg/dL or more were determined to be diabetic mice.\n(§2) The SMTP-44D groups, the edaravone group, and the pregabalin group were administered SMTP-44D (0.3 mg/kg, 3 mg/kg, or 30 mg/kg doses, respectively), edaravone (10 mg/kg dose), or pregabalin (10 mg/kg dose) into the peritoneal cavity once a day for 3 consecutive weeks from the day following the first week to the fourth week after STZ administration.\nFor the above-mentioned STZ group, SMTP-44D groups, edaravone group, pregabalin group, and control group mice, the following measurements were conducted every week from the 0th week, which began on the day when streptozotocin (STZ) was administered, to the 4th week (that is, a total of five times). As algesia tests, the following von Frey test and hot plate test were conducted, and hind plantar blood flow, body weight (BW), and blood glucose level (BS) were measured using the above-mentioned automatic blood glucose measure device. Note, for example, the 0th week represents the 0th day. That is, the measurements were conducted on the 0th, 7th, 14th, 21st, and 28th days."}, "[2]": {"system": "streptozotocin-induced diabetic mice", "assay": "Von Frey test: evaluating mechanical stimulus", "protocol": "as §1, §2\nThe above-mentioned STZ group, SMTP-44D groups, edaravone group, pregabalin group, and control group mice were put in grid-like boxes, respectively, and were familiarized for one hour. After the familiarization, by using a Dynamic Plantar Aesthesiometer (tactometer) (manufactured by UGO BASILE Inc.), 1 g/s (that, pressurization increased by 1 g per second) of stimulation was imparted to the hind legs of these mice to measure mechanical thresholds (g) from the start of stimulation to the time when the mice withdrew their legs. The measurements were conducted for both hind legs three times at intervals of three minutes or longer, respectively. A mean value of three mechanical thresholds (g) was calculated for 1 mouse, and then a mean value of the 12 mice for the respective groups was found."}, "[3]": {"system": "streptozotocin-induced diabetic mice", "assay": "Sciatic nerve conduction velocity", "settings": "4th week", "protocol": "as §1, §2\nSciatic nerves of the above-mentioned STZ group, SMTP-44D groups, edaravone group, pregabalin group, and control group mice on the 4th week were exposed under isoflurane anesthesia, and then, using the full-field laser perfusion imager, their sciatic nerve blood flows (perfusion unit: PU) were measured. After the sciatic nerve blood flows were measured, a voltage was output from a PowerLab through the […] to impart an electrical stimulus to the sciatic nerves using needle electrodes. The electrical stimulus went through the Analog Stimulus Isolator via recording electrodes attached to the gastrocnemius and was input into the PowerLab, and thus neuromuscular function response curves were measured. The sciatic nerves were stimulated between two points at 8-mm intervals. The sciatic nerve conduction velocity (m/s) was calculated by dividing the […]. The sciatic nerve blood flow and sciatic nerve conduction velocity were measured using a Hot-1 small-sized heating controller and small-sized body temperature retention device (model number: […]-1), maintaining the rectal temperature at 37° C. The measurement results are described in Table 11."}, "malondialdehyde: MDA": {"system": "malondialdehyde: MDA", "assay": "Oxidative stress (MDA, TBARS assay) in sciatic nerve", "settings": "30 mg/kg i.p. once a day, 4th week", "protocol": "as §1, §2\nThe sciatic nerves of the above-mentioned STZ group, SMTP-44D group (30 mg/kg), edaravone group, pregabalin group, and control group mice in the 4th week were homogenized using an RIPA buffer containing a protease inhibitor cocktail. Moreover, centrifugation was conducted at 4° C. for 15 minutes at 1600 g, and the supernatant was collected and used for measuring MDA (μM) and total protein concentration (μg/mL), respectively. MDA was measured using a TBARS Assay Kit. The total protein concentration was measured using a Pierce (Trademark) BCA Protein Assay Kit. Oxidative stress levels (nmol/mg protein) were calculated from MDA (μM) and the total protein concentration (μg/mL)."}, "IL-1β": {"system": "IL-1β", "assay": "Inflammatory cytokine IL-1β in sciatic nerve (ELISA)", "settings": "30 mg/kg i.p. once a day, 4th week", "protocol": "as §1, §2\n(§3) The sciatic nerves of the above-mentioned STZ group, SMTP-44D group (30 mg/kg), edaravone group, pregabalin group, and control group mice on the 4th week were homogenized using the RIPA buffer containing a protease inhibitor cocktail. Moreover, centrifugation was conducted at 4° C. for 15 minutes at 10,000 g, and the supernatant was collected and used for measuring TNF-α concentration (pg/mL), IL-1β concentration (pg/mL), IL-6 concentration (pg/mL), and total protein concentration (μg/mL), respectively. An ELISA assay kit was used for the TNF-α, IL-1β, and IL-6 concentrations. The total protein concentration was measured by using a Pierce (trademark) BCA Protein Assay Kit. The inflammatory cytokine level (pg/mg protein) in the total protein was calculated from the TNF-α concentration (pg/mL), IL-1β concentration (pg/mL), and IL-6 concentration (pg/mL), and total protein concentration (μg/mL)."}, "IL-6": {"system": "IL-6", "assay": "Inflammatory cytokine IL-6 in sciatic nerve (ELISA)", "settings": "30 mg/kg i.p. once a day, 4th week", "protocol": "as §1, §2, §3"}},
  "note": "Where “and” joins values, the source holds several entries; their conditions need not be identical. Equal values may be shown once.",
  "data": [
    {"molecule": "CC(C)=CCCC(C)=CCCC1(C)Oc2c(c(O)cc3c2CN(C(C(=O)O)c2ccc(O)cc2)C3=O)CC1O", "note": "(centres unmarked) [SMTP-44D]", "values": [
      {"measurement": "Body weight decrease between the 0th week and 4th week", "setting": "[1]", "value": 1.5, "unit": "g"},
      {"measurement": "BW (body weight)", "setting": "[1]; 0th week (before dosing)", "value": "23.0 ± 0.4", "unit": "g"},
      {"measurement": "BW (body weight)", "setting": "[1]; 1st week (before dosing)", "value": "21.7 ± 0.5", "unit": "g"},
      {"measurement": "BW (body weight)", "setting": "[1]; 3rd week", "value": "21.3 ± 0.6", "unit": "g"},
      {"measurement": "BW (body weight)", "setting": "[1]; 4th week", "value": "21.5 ± 0.5", "unit": "g"},
      {"measurement": "von Frey test mechanical threshold", "setting": "[2]; 0.3 mg/kg i.p. once a day, 0th week (before dosing)", "value": "5.2 ± 0.1", "unit": "g"},
      {"measurement": "von Frey test mechanical threshold", "setting": "[2]; 0.3 mg/kg i.p. once a day, 1st week (before dosing)", "value": "4.1 ± 0.1", "unit": "g"},
      {"measurement": "von Frey test mechanical threshold", "setting": "[2]; 0.3 mg/kg i.p. once a day, 2nd week", "value": "3.5 ± 0.2", "unit": "g"},
      {"measurement": "von Frey test mechanical threshold", "setting": "[2]; 0.3 mg/kg i.p. once a day, 3rd week", "value": "3.7 ± 0.1", "unit": "g"},
      {"measurement": "von Frey test mechanical threshold", "setting": "[2]; 0.3 mg/kg i.p. once a day, 4th week", "value": "3.6 ± 0.2", "unit": "g"},
      {"measurement": "von Frey test mechanical threshold", "setting": "[2]; 3 mg/kg i.p. once a day, 0th week (before dosing)", "value": "4.9 ± 0.2", "unit": "g"},
      {"measurement": "von Frey test mechanical threshold", "setting": "[2]; 3 mg/kg i.p. once a day, 1st week (before dosing)", "value": "4.2 ± 0.1", "unit": "g"},
      {"measurement": "von Frey test mechanical threshold", "setting": "[2]; 3 mg/kg i.p. once a day, 2nd week", "value": "4.0±0.1 g and 4.0 ± 0.1 ##− g"},
      {"measurement": "von Frey test mechanical threshold", "setting": "[2]; 3 mg/kg i.p. once a day, 3rd week", "value": "3.9 ± 0.2", "unit": "g"},
      {"measurement": "von Frey test mechanical threshold", "setting": "[2]; 3 mg/kg i.p. once a day, 4th week", "value": "4.0 ± 0.1", "unit": "g"},
      {"measurement": "von Frey test mechanical threshold", "setting": "[2]; 30 mg/kg i.p. once a day, 0th week (before dosing)", "value": "4.9 ± 0.1", "unit": "g"},
      {"measurement": "von Frey test mechanical threshold", "setting": "[2]; 30 mg/kg i.p. once a day, 1st week (before dosing)", "value": "3.9 ± 0.2", "unit": "g"},
      {"measurement": "von Frey test mechanical threshold", "setting": "[2]; 30 mg/kg i.p. once a day, 2nd week", "value": "5.4 ± 0.1", "unit": "g"},
      {"measurement": "von Frey test mechanical threshold", "setting": "[2]; 30 mg/kg i.p. once a day, 3rd week", "value": "5.3 ± 0.1", "unit": "g"},
      {"measurement": "von Frey test mechanical threshold", "setting": "[2]; 30 mg/kg i.p. once a day, 4th week", "value": "5.2 ± 0.1", "unit": "g"},
      {"measurement": "Sciatic nerve conduction velocity", "setting": "[3]; 0.3 mg/kg i.p. once a day", "value": "54.9±1.2", "unit": "m/s"},
      {"measurement": "Sciatic nerve conduction velocity", "setting": "[3]; 3 mg/kg i.p. once a day", "value": "56.9±2.8 m/s and 56.9 ± 28 m/s"},
      {"measurement": "Sciatic nerve conduction velocity", "setting": "[3]; 30 mg/kg i.p. once a day", "value": "63.8±2.0", "unit": "m/s"},
      {"measurement": "MDA (oxidative stress)", "setting": "malondialdehyde: MDA", "value": "1.98±0.51", "unit": "nmol/mg protein"},
      {"measurement": "IL-1β", "setting": "IL-1β", "value": "24.90±4.05", "unit": "pg/mg protein"},
      {"measurement": "IL-6", "setting": "IL-6", "value": "143.41±8.08", "unit": "pg/mg protein"}
    ]}
  ]
}
